Usually CLint scaled stands for the rate of metabolic loss divided by the concentration.

Data set [1] can be described thus: Metabolic stability in human liver microsomes. Type of data set: in vitro ADME. On the procedure: Eq. 4 Predicted t1/2 t1/2=−0.693/λ (4) Where λ is the slope of the Ln % parent remaining vs. time curve. • v. Plasma protein binding. Plasma protein binding was determined in pooled human plasma using an ultracentrifugation method. Stock solutions of test compounds (10 mM) were diluted in phosphate buffer and spiked into plasma in deep well 96-well plates (10 µM). An aliquot of each compound was immediately precipitated with ice cold acetonitrile containing the internal standard carbamazepine (0.1 μM). These served as total concentration samples. After incubation in a water bath at 37°C for 1 h, the samples were transferred to ultracentrifuge tubes in duplicate and centrifuged for 4 h at 37°C and 30,000 g (Optima L-80XP, Beckman). Following centrifugation, the supernatant was transferred to the plate containing the total concentration samples and precipitated with ice cold acetonitrile containing the internal standard. Analyte concentrations of all compounds were determined via LC-MS/MS (reverse phase Gemini NX-C18 column and Shimadzu HPLC coupled with an AB Sciex 3200 Q TRAP MS) as described above. • vi. Metabolic stability. A 5-point metabolic stability assay in human and mouse liver microsomes were performed in duplicate in 96-well plates. […] The cofactor NADPH was added, and the reactions were subsequently stopped at time points 5, 10, 30 and 60 min by removal of an aliquot and quenching with ice cold acetonitrile containing the internal standard. The supernatant of all samples was analysed via LC-MS/MS analysis (reverse phase Gemini NX-C18 column and Shimadzu HPLC and AB Sciex 3200 Q TRAP MS) as described above.
In general terms: Liver microsomes are vesicles of endoplasmic reticulum, rich in cytochrome P450 enzymes.

The test system of data set [2] is CQ-sensitive Plasmodium falciparum NF54 strain. The experiment in a line: Fixed ratio combination (isobologram) experiments, 72-h pLDH assay. Format: cell-based. The conditions noted are these: asexual blood stages, Pf NF54, fixed ratio isobologram. The method, then: Artemisone was used in the combination studies with each of AD01 and PhX6. Combination studies were conducted using a modified version of the method described by [Fivelman et al. (2004)] ([Fivelman et al., 2004]). Against drug-sensitive NF54 P. falciparum parasites in the standard 72-h pLDH assay. The drug stocks were then mixed to make 6 different volumetric ratios to obtain a range of concentrations (Table 2). Concentration ranges for combinations were prepared from the predetermined single IC50 values (Table 3) such that the IC50 of the individual compounds would be in the middle of the plate. The FIC50 and ∑FIC were calculated as described in Eqs 6–8 ([Fivelman et al., 2004]).
Eq. 6: FIC50 of compound A FIC50A=IC50 A+B/IC50 A
Eq. 7: FIC50 of compound B FIC50B=IC50 B+A/IC50 B
Finally, FIC50 values of compounds in respective combinations were plotted as isobolograms.
Although there is currently no standardised method to determine drug combination effects, many models are available ([Wagner and Ulrich-Merzenich, 2009]; [Matthews et al., 2017]). The fixed ratio isobologram method has been widely used in many fields including antimalarial drug discovery and development ([Fivelman et al., 2004]; [Wagner and Ulrich-Merzenich, 2009]; [Matthews et al., 2017]). […] The relationship can also be determined by plotting the FIC50 of each compound on separate axes to create an isobologram. […]

Turning to `CCN(CC)c1ccc2nc3ccc(=[N+](CC)CC)cc-3sc2c1` [AD01], in data set [1], the CLint scaled came out at 16.2 mL/min/kg. In addition, the “Interaction in combination with artemisone (overall, in words)” value in data set [2] is recorded as “enhanced synergistically”.

`CCN(CC)c1ccc2nc3c4ccccc4/c(=N\c4ccccn4)cc-3oc2c1` [PhX6] showed a CLint scaled in data set [1] of 20.2 mL/min/kg. Moreover, the “Interaction in combination with artemisone (overall, in words)” value in data set [2] is “enhanced synergistically”.

(Values after article PMC10800708, “Efficacies and ADME properties of redox active methylene blue and phenoxazine analogues for use in new antimalarial triple drug combinations with amino-artemisinins” (Frontiers in Pharmacology, 2024).)
